Test results reported in US20220331374A1, “NOVEL SKIN CARE COMPOSITION” (BEIERSDORF AG, priority 2019, published 2022).

system: C. acnes strain K8; assay: Minimum inhibitory concentration (MIC) of cosmetic excipients, strain K8; type: cell-based, Cutibacterium acnes; conditions: % w/vol, incubated anaerobically for 3 days at 37° C., scored visually for growth
Protocol: (§1) In microbiology, the MIC is the lowest concentration of a chemical which prevents visible growth of bacterium. The resulted MIC value depends both on the microorganism and the test compound. The MIC is determined by preparing concentrations series of the test compound in vitro, incubating the solutions with the separate batches of cultured bacteria, and measuring the results using agar dilution or broth microdilution. For the experiments with C. acnes strains C3 and K8, media comprising yeast extract soy peptone and dextrose were used. The MIC is determined by turbidity.
(§2) A total of 125 cosmetic excipients were tested for their compatibility with C. acnes strains C3 and K8. Hydrophilic compounds were tested in a 96-well plate liquid broth format, poorly soluble compounds were pre-dissolved in DMSO before dilution in liquid broth and hydrophobic or solid compounds were tested in an agar well diffusion test assay. The different dilutions of the test excipients in media were prepared in Falcon tubes and then distributed in a deep well plate using a multistepper. Each well received 1.2 ml and was subsequently inoculated with 120 μl of C. acnes bacteria suspension (strain C3 and K8). From the deep well plate 200 μl were transferred in each well of a clear 96 well replicate plate. The leftover was discarded. The plates were then incubated anaerobically for 3 days at 37° C. Following incubation, the test plates were visually examined and wells were scored for growth or complete growth inhibition to define the minimum inhibitory concentration.
(§3) These excipients are listed in the below table with their compatibility values for C. acnes strains C3 and K8. The compatibility values represent the MIC value of the listed ingredients with the tested C. acnes strains. At this concentration [% w/vol] the tested compound starts interfering with the growth of the tested strains. The compounds can be used in formulations at concentrations below this concentration.

Compound	COMPATABILITY VALUE K8 [%]
CC(CO)CO [methylpropanediol]	4.00
tocopherol	1.50
CCCCCCC(O)CO (centres unmarked) [caprylyl glycol]	0.18
CCO [ethanol]	3.75
CC(=O)Oc1c(C)c(C)c2c(c1C)CCC(C)(CCC[C@H](C)CCC[C@H](C)CCCC(C)C)O2 (some centres unmarked) [tocopheryl acetate]	1.00
O=C(O)CC(O)(CC(=O)O)C(=O)O [citric acid]	0.08
ethylhexyl cocoate	10.00

system: C. acnes strain C3; assay: Minimum inhibitory concentration (MIC) of cosmetic excipients, strain C3; type: cell-based, Cutibacterium acnes; conditions: % w/vol, incubated anaerobically for 3 days at 37° C., scored visually for growth
Protocol: as §1, §2, §3

Compound	COMPATABILITY VALUE C3 [%]
CC(CO)CO [methylpropanediol]	4.00
tocopherol	1.50
CCCCCCC(O)CO (centres unmarked) [caprylyl glycol]	0.18
CCO [ethanol]	3.75
CC(=O)Oc1c(C)c(C)c2c(c1C)CCC(C)(CCC[C@H](C)CCC[C@H](C)CCCC(C)C)O2 (some centres unmarked) [tocopheryl acetate]	1.00
O=C(O)CC(O)(CC(=O)O)C(=O)O [citric acid]	0.33
ethylhexyl cocoate	10.00
